Test results published in patent US8709379B2, “Liposomal nanoparticles and other formulations of fenretinide for use in therapy and drug delivery” (Scitech Development, LLC, priority 2006, dated 2014).
Values after ≈ are worked out from the molar mass of the structure shown. Values joined by “and” are separate entries in the source; they are usually repeats but may differ in a detail not shown here. Equal entries are not always repeated. Where two headings read alike, the source gives them in different places.

Legend:
[1] = system: EpiDerm-FT (full thickness living skin model); assay: Delivered dose and retinoid flux, EpiDerm-FT in Franz cells; settings: EpiDerm-FT, collection period up to 5 hours
Procedure: (§1) Using an analytical method measuring HPR by HPLC, and extraction procedures that yield >95% recovery of HPR from skin homogenates, EpiDerm Enhanced Barrier Function and EpiDerm Full-thickness skin specimens were removed from the Franz cells at the scheduled time, washed and halved as described below, and then homogenized and extracted in acetonitrile supplemented with 4 μg/mL BHT, 0.1% ethanol for quantitation of HPR by HPLC. Receiver medium specimens were collected and processed for HPR analysis by HPLC as described below. Injection volumes were 100 μl for extracts of skin and receiver medium and 50 μl for calibration standards. HPR quantitation was by back calculation to a standard curve constructed from clinical grade HPR received from the NCI. […] For the second permeation study of Retin-A, PD05057 and HPR formulation C5 2005 using enhanced barrier function epidermal models, ATRA in the extracts of treated skin was quantified against an ATRA standard curve and HPR against an HPR standard curve.
(§2) 18 reconstituted EpiDerm-Full Thickness specimens (EFT-306-AFAB-PRF, lot #7024-306-AFAB-PR) and 18 reconstituted EpiDerm Skin Model Enhanced Barrier Function (EPI-606-X-AFAB-PRF, lot #5093ofs) were received in good condition from Mattek Inc via overnight courier. EpiDerm-FT was maintained in culture by specialized medium changes every other day according to the manufacturer's instructions. EpiDerm-606X was stored refrigerated until use. EpiDerm-FT medium was free of phenol red, antibiotic and anti-fungal additives (EFT-300-MM-ASY-AFAB-PRF, lot #110405aab and EPI-100-X), so as to avoid creating artifactual toxicity or proinflammatory response. The particular skin specimens were all reconstituted with normal human epidermal keratinocytes and, for EpiDerm-FT, fibroblasts as well from a single donor foreskin.
(§3) Three topical products were tested in the in vitro skin model: Retin-A 0.1% (lot #5BM258, expiry 02/07), HPR in topical formulation C5 and another HPR formulation (PD05057). These drugs were tested blindly using the following codes: “A” for Retin-A, “B” for the C5 formulation of HPR, and “D” for the HPR formulation PD05057. Receiver medium was made by mixing pre-warmed, 37° C. EFT-306 medium 5:1 with human serum albumin (Sigma A6909, lot #055K8904, then lot #095K8906) to its physiological concentration of 50 mg/mL. To prevent oxidation of HPR during the collection period, BHT was added to the receiver medium to a final concentration of 10 μg/mL from a 40 mg/mL solution of BHT-NF (Spectrum Chemicals, B1196, lot #UM0659) in Ethanol USP (NDC 11098-503-05, lot #121310). Each sterile amber Franz cells was pre-warmed to 37° C. using a circulating water bath, the bottom chamber filled completely with receiver medium (˜10 ml), and then reconstituted skin specimens were removed from the cell culture wells and spread across the orifice epidermis upward, and clamped into place with a sterile top chamber. Pre-weighed aliquots of a target dose of 1.7 mg Retin-A prepared using an analytical balance were applied to the epidermal face, disbursed and messaged with the aid of the rubber tip of 1 ml BD tuberculin syringes and the start time recorded.

[2] = cited from earlier work
[3] = Maximum (saturation) solubility of HPR in physiological aqueous systems with ethanol or human plasma proteins; type: physicochemical
Procedure: Although the compound is readily soluble in ethanol, this solvent solubility was not maintained when an ethanol solution of HPR was mixed into aqueous buffered systems, like physiological solutions, and in fact, even when the ethanol content of an aqueous solution of HPR was as high as 20%, the HPR solubility only reached approximately 1-2 μg/ml.
Purified human proteins were obtained from Sigma Chemical Company and dissolved in receiver medium, which was the same as the specialized medium from Mattek Inc used to maintain reconstituted skin systems or assay enhanced barrier permeability function. The individual proteins were dissolved to their respective plasma concentrations: high-density lipoprotein to 0.2 mg/mL, retinol binding protein to 0.05 mg/mL, serum albumin to 50 mg/mL (A6909, lot #055K8904), and acid α1-glycoprotein to 1 mg/mL (50646, lot #448248/1). HPR dissolved to 100 mg/mL in absolute ethanol supplemented with 4 mg/mL BHT was added to each protein solution to final theoretical concentration of 50 μg/mL and mixed by vortexing, the insoluble drug removed by centrifugation (12,000×g, 5 min, 23° C.), and the supernatant analyzed by HPLC to quantify HPR concentration.
A study of the HPR solubilizing properties of physiological concentrations of four human drug-binding plasma proteins that were expected to bind HPR under physiological conditions was conducted in receiver medium: high-density lipoprotein (HDL), retinol binding protein (RBP), albumin (ALB), and acid α-1-glycoprotein (AGP). Although certainly not the highest affinity binding, ALB solubilized more HPR per mL of receiver medium than any other plasma protein tested, driven primarily by its much higher physiological concentration than the other proteins. The solubilizing capacity of ALB was 7.5 μg HPR per ml of medium, which was 5-fold higher than that of 20 vol % ethanol. Using physiological concentrations of ALB in the 10 ml receiving medium chamber created a sink condition capable of binding 75 μg of HPR. Since the test surface area of the Franz cell was 1 cm^2 and the testing was conducted over 5 hours, this receiver medium was capable of supporting an average flux rate of 15 μg/cm^2/hour. It was concluded that this receiving medium should provide true sink conditions, considering the applied test dose of API from each formulation was just 1.7 μg/cm^2.

[4] = Clinical trial and pharmacokinetic study of oral HPR (corn oil soft gel capsules) in adult solid tumor patients; type: in vivo, human; settings: for Cmax: po
Procedure: In an early clinical trial and pharmacokinetic study of oral HPR (corn oil, soft gel capsules) administered qdx7 to adult solid tumor patients at Wayne State University, dose escalation proceeded to 1600 mg/m^2 TID per day for seven days (˜90 capsules/day for one week).

[5] = Bioavailability of oral HPR in corn oil versus IV F23 in Sprague-Dawley rats; type: in vivo; settings: plasma, rat, 1200 mg/m^2 in corn oil by gavage vs 444 mg/m^2 IV F23, AUC0-30, read-out: bioavailability of orally dosed HPR
Procedure: The appropriate doses of injectable HPR administered IV to achieve desired blood or tissue levels can be determined by those skilled in the art, using data from related studies of oral and intravenous HPR formulations in healthy rats. For example, the present inventors administered a single, non-toxic bolus dose of 444 mg/m^2 of the F23 formulation (described herein) that was prepared at a strength of 50 mg/mL HPR, via femoral vein catheters to a group of seven dual catheterized Sprague-Dawley rats. A second group of rats received a single, non-toxic dose of 1200 mg/m^2 HPR in corn oil via oral gavage after an overnight fast which was maintained up until 2 hours after dosing. […]
Mean blood plasma concentration-time curves of measured HPR following oral and IV administration are shown in (FIG. 2). From such results, the bioavailability of the oral HPR can be calculated, as an accepted measure of the proportion of orally administered drug that entered systemic circulation. […] Bioavailability of oral HPR administered in corn oil was calculated by comparing the AUC values achieved by oral and intravenous dosing using the equation:
[formula] […] Assuming this to be similar to bioavailability of oral HPR in humans, which cannot be measured directly until human patients are actually dosed with intravenous HPR, it is possible to estimate suitable doses of HPR lipid nanoparticles for clinical use.

[6] = system: isolated epidermis (cadaveric); assay: Permeation into isolated cadaveric epidermis in Franz cells; type: in vitro ADME; settings: receiver medium PBS with ethanol to 20 vol %
Procedure: Epidermal drug levels achieved by 3 hours were stable to 24 hours. The C5 formulation reached 11. μg/mg after single application. The products were tested as 0.1% strength creams. Thus, by increasing strength of the product to 0.5% and applying twice daily, it is possible to achieve target content levels in the skin. Moreover, as discussed below, the C5 formulation may be advantageous in reaching this level in epidermis alone.

[7] = Maximum (saturation) solubility of HPR in physiological aqueous systems with ethanol or human plasma proteins; type: physicochemical; settings: 23 °C, kinetic from dmso stock, PBS pH 7.4
human tumor cell lines = settings: for 72 hours in vitro; cited from earlier work
[8] = rat, 24 hours after dosing; cited from earlier work
SCLC patients = settings: cited from earlier work
rodents = settings: in vivo; cited from earlier work
[9] = system: EpiDerm-FT (full thickness living skin model)
Procedure: as §1, §2, §3

[10] = system: EpiDerm-606X (epidermal model, enhanced barrier function); settings: human, 0.1 %
Procedure: as §1, §2, §3

[11] = Delivered dose and retinoid flux, EpiDerm-FT in Franz cells; settings: human, 1.7 mg Retin-A cream
Procedure: as §1, §2, §3

Question: Which “detection in receiver medium” value [1] does the source give for `CC1=C(/C=C/C(C)=C/C=C/C(C)=C\C(=O)O)C(C)(C)CCC1` [Formulation 13-cis-RA, 13-cis-retinoic acid] here?
Answer: Its value is “accumulated in the receiver medium”.

Question: With `COc1ccc(NC(=O)\C=C(C)/C=C/C=C(C)\C=C\C2=C(C)CCCC2(C)C)cc1` [MPR] as the compound, how does the “plasma level of MPR metabolite” value ([2]; oral HPR 125 mg/kg/day) read?
Answer: The value was 60 ng/mL.

Question: And the “plasma level of MPR metabolite” value ([2]; oral HPR 800 mg/kg/day)?
Answer: The value was 60 ng/mL.

Question: Which solubility ([3]; PBS with 20% ethanol, 23 °C, pH 7.4, aqueous with cosolvent or surfactant or cyclodextrin, kinetic from dmso stock, PBS pH 7.4, ethanol to 20% of volume, read-out: Maximum HPR Solubility) does the source give for `CC1=C(/C=C/C(C)=C/C=C/C(C)=C/C(=O)Nc2ccc(O)cc2)C(C)(C)CCC1` [HPR, N-4-hydroxyphenylretinamide] here?
Answer: The solubility was 1 to 2 µg/mL (≈ 2.55 to 5.11 µM).

Question: What about the “increase of HPR solubility by ethanol” value ([3]; PBS with 20 vol % ethanol versus physiological saline) of the same compound?
Answer: Its value is 200 fold.

Question: What about the solubility ([3]; phosphate-buffered saline with 20 vol % ethanol, pH 7.4, aqueous with cosolvent or surfactant or cyclodextrin, kinetic from dmso stock, phosphate-buffered saline with ethanol to 20 vol %, read-out: HPR solubility) of the same compound?
Answer: Its solubility is about 1.3 µg/mL (≈ 3.32 µM).

Question: And the solubility ([3]; physiological saline / aqueous systems, saline or isotonic, physiological saline / aqueous systems, read-out: HPR solubility)?
Answer: Its solubility is about 0.005 µg/mL (≈ 0.0128 µM).

Question: What about the “solubilizing capacity of ALB relative to 20 vol % ethanol” value ([3]; receiver medium with albumin) of the same compound?
Answer: Its value is 5 fold.

Question: And the Cmax ([4]; human, plasma, after the first dose)?
Answer: Its Cmax is 1000 ng/mL to 1300 ng/mL and 2.6 µM to 3.3 µM.

Question: What about the Cmax ([4]; human, plasma, after the last dose) of the same compound?
Answer: The Cmax was 2800 ng/mL to 4600 ng/mL and 7 µM to 12 µM.

Question: And the half-life ([4]; human, plasma, oral HPR, patients, read-out: terminal phase half-life)?
Answer: The half-life was 8 to 14 h.

Question: What about the “ceiling of plasma HPR level” value ([4]; oral, regardless of schedule or dose above 1200 mg/m^2 BID) of the same compound?
Answer: Its value is at most 5 µg/mL.

Question: What about the bioavailability [5] of the same compound?
Answer: The bioavailability was 8%.

Question: And the “HPR in receiver medium” value [6]?
Answer: The value was “not detected”.

Question: What about the solubility ([7]; human, PBS with albumin 50 g/L, pH 7.4, plasma or biological fluid, albumin 50 g/L) of the same compound?
Answer: The solubility was 7 to 8 µg/mL (≈ 17.9 to 20.4 µM).

Question: What about the solubility ([7]; human, PBS with high density lipoprotein 0.2 g/L, pH 7.4, plasma or biological fluid, high density lipoprotein 0.2 g/L) of the same compound?
Answer: Its solubility is 1.5 to 3 µg/mL (≈ 3.83 to 7.66 µM).

Question: What about the solubility ([7]; human, PBS with retinol binding protein 0.05 g/L, pH 7.4, plasma or biological fluid, retinol binding protein 0.05 g/L) of the same compound?
Answer: The solubility was under 1 µg/mL.

Question: And the solubility ([7]; human, PBS with α1-acid-glycoprotein 1 g/L, pH 7.4, plasma or biological fluid, α1-acid-glycoprotein 1 g/L)?
Answer: Its solubility is 1 to 2 µg/mL (≈ 2.55 to 5.11 µM).

Question: And the solubility ([7]; phosphate buffered saline, pH 7.4, aqueous buffer, additive none)?
Answer: Its solubility is under 1 µg/mL.

Question: What about the “plasma level of HPR” value ([2]; oral 25 mg/kg/day for 10 days, 3 hrs after last dose) of the same compound?
Answer: The value was 80 ng/mL.

Question: What about the “plasma level of HPR” value ([2]; oral 125 mg/kg/day for 10 days, 3 hrs after last dose) of the same compound?
Answer: Its value is 260 ng/mL.

Question: What about the “plasma level of HPR” value ([2]; oral 800 mg/kg/day) of the same compound?
Answer: The value was 315 ng/mL.

Question: And the “minimum HPR exposure level required to inhibit human tumor cell lines by at least 50-90%” value (human tumor cell lines)?
Answer: Its value is 10 µM.

Question: What about the “accumulation in pancreas over plasma” value [8] of the same compound?
Answer: Its value is 15-20 fold.

Question: And the “maximum concentration of HPR in blood-plasma (±SD)” value (SCLC patients; 14 SCLC patients, 3-4 hours after 14th oral dose (twice/day, 7 days), in µM)?
Answer: Its value is 7.7±4.4 04.

Question: And the maximum plasma concentration (SCLC patients; SCLC patients, after final of 14 oral doses of 900 mg/m^2)?
Answer: The maximum plasma concentration was “approximately 7.7 μM”.

Question: And the “stable disease, share of advanced SCLC patients” value (SCLC patients; oral HPR)?
Answer: The value was 30%.

Question: And the “maximum tolerated dose (MTD)” value (rodents)?
Answer: The value was 651 mg/m^2.

Question: And the “maximum tolerated dose for parenteral HPR” value (rodents)?
Answer: Its value is about 650 mg/m^2 per day.

Question: And the “well tolerated daily dose” value (rodents)?
Answer: Its value is about 600 mg/m^2.

Question: What does the source list for `CC1=C(/C=C/C(C)=C/C=C/C(C)=C/C(=O)O)C(C)(C)CCC1` [ATRA, all-trans-retinoic acid]?
Answer: detection in receiver medium [9]: No ATRA was detected; retinoid in Cells (skin specimen) ([9]; human, 0.2 h, 0.1 %): 0.031 µg; retinoid in receiver Medium ([9]; human, 0.2 h, 0.1 %): 0 µg; retinoid in Cells (skin specimen) ([9]; human, 2.1 h, 0.1 %): 0.042 µg; retinoid in receiver Medium ([9]; human, 2.1 h, 0.1 %): 0 µg; retinoid in Cells (skin specimen) ([9]; human, 3 h, 0.1 %): 0.056 µg; retinoid in receiver Medium ([9]; human, 3 h, 0.1 %): 0 µg; share of applied dose in skin specimen ([9]; human, 3 h, 0.1 %): 2.9%; retinoid in Cells (skin specimen) ([9]; human, 5 h, 0.1 %): 0.035 µg; retinoid in receiver Medium ([9]; human, 5 h, 0.1 %): 0 µg; retinoid in Cells (epidermis) ([10]; 1 h): 0.209 µg; retinoid in receiver Medium ([10]; 1 h): 0 µg; retinoid in Cells (epidermis) ([10]; 2 h): 0.106 µg; retinoid in receiver Medium ([10]; 2 h): 0 µg; retinoid in Cells (epidermis) ([10]; 3 h): 0.046 µg; retinoid in receiver Medium ([10]; 3 h): 0 µg; retinoid in Cells (epidermis) ([10]; 5 h): 0.032 µg; retinoid in receiver Medium ([10]; 5 h): 0 µg; half-life at 0.1 % [11]: > 2 h
